Legend:
[1] = target: T1, 3-hydroxyanthranilate-3,4-dioxygenase (3HAO) (Homo sapiens, UniProt P46952); experiment: In vitro 3HAO inhibition in human brain homogenates; type: biochemical
T1 construct: One hundred μl of healthy human brain homogenate; from tissue; host or cells: healthy human brain homogenate
T1 sequence (P46952 1-286): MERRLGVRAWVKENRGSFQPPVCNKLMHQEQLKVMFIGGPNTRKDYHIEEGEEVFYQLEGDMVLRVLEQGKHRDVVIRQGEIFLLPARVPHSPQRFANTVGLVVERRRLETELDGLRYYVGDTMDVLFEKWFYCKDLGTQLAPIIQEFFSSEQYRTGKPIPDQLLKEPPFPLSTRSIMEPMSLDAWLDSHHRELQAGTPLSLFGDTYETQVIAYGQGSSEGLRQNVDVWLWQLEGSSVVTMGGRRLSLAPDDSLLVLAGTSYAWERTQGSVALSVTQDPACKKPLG
Protocol: (§1) The following procedure has been carried out for all the six compounds prepared according to the Examples 1-6 above.
(§2) One hundred μl of healthy human brain homogenate (1/10 dilution in bidistilled water) were further diluted (1/2, 5 v/v) with a 5 mM MES/NaOH buffer (pH 6.5) and incubated at 37° C. for 1 h in the presence of the radiolabeled substrate[14C]-3-hydroxyanthranilic acid (3.7 μM), ferrous ammonium sulphate (150 μM), ascorbic acid (0.01%). 20 μl of a solution (10 μM) of a compound of the invention were added prior to the addition of the radiolabeled substrate, to a final volume of 200 μl. The enzymatic reaction was stopped by adding 50 μl of 6% perchloric acid. The mixture was centrifuged for 5 min a 12.000 g and the supernatant was applied to a column packed with a cation-exchange resin (Dowex 50W, 0.5×2.0 cm; protonated form). [14C]-quinolinic acid formed by enzymatic reaction was eluted with 1 ml of distilled water. The eluate was added to scintillation liquid (Beckman, Ultima Gold) and radioactivity was measured with a beta-counter.
(§3) The same procedure has been repeated by adding 20 μl of a solution (100 μM) of a compound of the invention and repeated by adding 20 μl of a solution (1000 μM) of a compound of the invention.

[2] = target: T2, 3-hydroxyanthranilate-3,4-dioxygenase (3HAO) (Rattus norvegicus, UniProt P46953); experiment: In vitro 3HAO inhibition in rat brain homogenates; type: biochemical
T2 construct: One hundred μl of control Sprague Dawley rat brain homogenate; from tissue; host or cells: Sprague Dawley rat brain homogenate
T2 sequence (P46953 1-286): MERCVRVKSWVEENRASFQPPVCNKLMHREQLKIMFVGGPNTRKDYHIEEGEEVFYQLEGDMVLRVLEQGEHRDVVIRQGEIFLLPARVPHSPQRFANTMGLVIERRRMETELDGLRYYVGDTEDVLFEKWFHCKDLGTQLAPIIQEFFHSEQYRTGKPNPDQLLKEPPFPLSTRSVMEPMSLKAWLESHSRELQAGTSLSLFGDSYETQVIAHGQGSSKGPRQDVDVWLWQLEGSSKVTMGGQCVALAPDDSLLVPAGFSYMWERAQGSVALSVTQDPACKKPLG
Protocol: as §1
as §2, with “μl of control Sprague Dawley rat brain homogenate” for “μl of healthy human brain homogenate”, “acid (3.7 µM), ferrous ammonium” for “acid (3.7 μM), ferrous ammonium”, “sulphate (150 µM), ascorbic acid” for “sulphate (150 μM), ascorbic acid”, “radiolabeled substrate, for a total” for “radiolabeled substrate, to a final”, “for a total volume of” for “to a final volume of”, “with a is beta-counter.” for “with a beta-counter.”
as §3

[3] = test system: de novo production of QUIN in QUIN-lesioned rat brain; experiment: In vivo de novo production of QUIN from 3H-kynurenine in QUIN-lesioned rat striatum; conditions: 5 mM I3 co-infused intrastriatally with 3H-kynurenine, 7 days after lesion, 2 h, FIG. 1
Protocol: Quinolinic acid lesions in the rat striatum were made as described by Schwarcz et al. (1983), using 300 nmol quinolinic acid per injection. In vivo assays of I3 in the lesioned striatum were performed 7 days later. [Schwarcz R, Whetsell W O Jr, Mangano R M (1983) Quinolinic acid: an endogenous metabolite that produces axon-sparing lesions in rat brain. Science 219:316-8.]
Intrastriatal injection of 3H-kynurenine: two months-old male Sprague-Dawley rats were anesthetized with chloral hydrate (360 mg/kg, i.p.) and mounted in a David Kopf stereotaxic apparatus (Tujunga, Calif.). Through a small burr hole in the skull, […] of 3H-kynurenine [in phosphate-buffered saline (PBS), pH 7.4] was infused (6 μL over 10 min) intrastriatally. 3H-kynurenine was infused in the absence or presence of 5 mM I3. The injection coordinates were: AP: 1.0 mm anterior to bregma, L: 2.6 mm from the midline, V: 4.8 mm below dura. Animals were euthanized 2 h later and the striatum was dissected out, frozen on dry ice and stored at −80° C. Subsequently, the tissue was processed for the determination of tritiated neuroactive products of KP metabolism. […]
Analysis of 3H-quinolinic acid: the analysis of tritiated quinolinic acid derived from 3H-kynurenine was performed essentially as described by Guidetti et al. (1995). […] Tritiated quinolinic acid was detected radiometrically (Beta-Ram; IN/US Systems, Tampa, Fla.). […]

[4] = Chemical stability over time in phosphate buffer (HPLC); type: physicochemical; conditions: phosphate buffer pH 7.5; 10 and 100 μM; 37° C.; 24 h; FIG. 2
Protocol: Compound I3 was dissolved in a phosphate buffer at pH 7.5 at two different concentrations (10 and 100 μM). The resulting solutions were incubated at 37° C. for 24 h.
Chromatographic analyses were performed with a HPLC system (Shimadzu Corp., Kyoto, Japan), endowed with a UV/VIS detector, and the samples were eluted with a mixture containing methanol (0.05% TFA)/water (0.25% TFA)=20/80 at a flow rate of 1 ml/min.

[5] = 1000 μM compound, human brain homogenate (I4-I6 table)
[6] = 1000 μM compound, rat brain homogenate (I4-I6 table)
[7] = 10 μM compound, human brain homogenate
[8] = 100 μM compound, human brain homogenate
[9] = 1000 μM compound, human brain homogenate (I1-I3 table)
[10] = 10 μM compound, rat brain homogenate
[11] = 100 μM compound, rat brain homogenate
[12] = 1000 μM compound, rat brain homogenate (I1-I3 table)

| % inibition of 3HAO (h) [1, 5] | % inibition of 3HAO (r) [2, 6] | % inibition of 3HAO (h) [1, 7] | % inibition of 3HAO (h) [1, 8] | % inibition of 3HAO (h) [1, 9] | % inibition of 3HAO (r) [2, 10] | % inibition of 3HAO (r) [2, 11] | % inibition of 3HAO (r) [2, 12] | Structure (SMILES) | Effect on brain level of QUIN (de novo 3H-quinolinic acid production) [3] | Chemical stability (HPLC) [4] |
| --- | --- | --- | --- | --- | --- | --- | --- | --- | --- | --- |
| 60% | 70% |  |  |  |  |  |  | CC(C)c1cc(C(C)C)[n+]([O-])c(N)c1C(=O)O [Compound I6, 2-amino-4,6-diisopropylnicotinic acid N-oxide] |  |  |
| 70% | 80% |  |  |  |  |  |  | Cc1cc(-c2ccccc2)c(C(=O)O)c(N)[n+]1[O-] [Compound I5, 2-amino-4-phenyl-6-methylnicotinic acid N-oxide] |  |  |
|  |  | 66% | 93% | 96% | 49% | 90% | 97% | Nc1c(C(=O)O)ccc[n+]1[O-] [Compound I1, 2-aminonicotinic acid N-oxide] |  |  |
| 23% | 15% |  |  |  |  |  |  | Cc1ccc(C(N)=O)c(N)[n+]1[O-] [Compound I4, 2-amino-6-methylnicotinamide N-oxide] |  |  |
|  |  | 42% | 100% | 100% | 22% | 76% | 99% | Nc1c(C(=O)O)ccc(Cl)[n+]1[O-] [Compound I2, 2-amino-6-chloronicotinic acid N-oxide] |  |  |

| Structure (SMILES) | % inibition of 3HAO (h) [1, 5] | % inibition of 3HAO (r) [2, 6] | % inibition of 3HAO (h) [1, 7] | % inibition of 3HAO (h) [1, 8] | % inibition of 3HAO (h) [1, 9] | % inibition of 3HAO (r) [2, 10] | % inibition of 3HAO (r) [2, 11] | % inibition of 3HAO (r) [2, 12] | Effect on brain level of QUIN (de novo 3H-quinolinic acid production) [3] | Chemical stability (HPLC) [4] |
| --- | --- | --- | --- | --- | --- | --- | --- | --- | --- | --- |
| Cc1ccc(C(=O)O)c(N)[n+]1[O-] [Compound I3, 2-amino-6-methylnicotinic acid N-oxide] |  |  | 80% | 100% | 100% | 78% | 97% | 99% | able to block the abnormal de novo production of QUIN under excitotoxic conditions | complete chemical stability |
